Data as given in US20250017940A1, “SELECTIVE PEPTIDOMIMETIC MODULATORS OF CAV2.2 (N-TYPE) VOLTAGE-GATED CALCIUM CHANNELS AND USES THEREOF” (New York University, priority 2023, published 2025).

How the values were obtained:
total Ca2+ currents = assay: Whole-cell patch-clamp, total Ca2+ currents in small-to-medium DRG neurons; format: cell-based, rat; conditions: 20 μM overnight
Procedure: (§1) Recordings were obtained from acutely dissociated DRG neurons as described earlier (Bellampalli et al., 2019). Patch-clamp recordings were performed at room temperature (22-24° C.). Currents were recorded using an EPC 10 Amplifier-HEKA (HEKA Elektronik, Ludwigshafen, Germany) linked to a computer with Patchmaster software. DRG neurons were incubated overnight (˜16-24 hours) with 20 μM of CBD3063.
(§2) For total calcium current (ICa^2+) recordings, the external solution consisted of the following (in mM): 110 N-methyl-D-glucamine, 10 BaCl2, 30 TEA-Cl, 10 HEPES, 10 glucose, and 0.001 TTX (pH 7.29 adjusted with TEA-OH, and mOsm/L=310). Patch pipettes were filled with an internal solution containing (in mM): 150 CsCl2, 10 HEPES, 5 Mg-ATP, and 5 BAPTA, (pH 7.2 adjusted with CsOH, and mOsm/L-305). Peak Ca^2+ current was acquired by applying 200-millisecond voltage steps from −70 to +60 mV in 10-mV increments from a holding potential of −90 mV to obtain the current-voltage (I-V) relation. To measure the different subtypes of Ca^2+ channels, DRGs were treated with a Cav inhibitor cocktail omitting the inhibitor specific to the subtype being tested (e.g., to measure Cav2.2 currents, ω-conotoxin GVIA is omitted): Nifedipine (10 μM, L-type), ω-Conotoxin-GVIA (500 nM, […]) (Feng, et al., 2001), SNX482 (200 nM, R-type) (Newcomb et al., 1998), ω-agatoxin (200 nM, P/Q-type) (Mintz et al., 1992), TTA-P2 (1 μM, T-type) (Choe et al., 2011).
(§3) Normalization of currents to each cell's capacitance (pF) was performed to allow for collection of current density data. For I-V curves, functions were fitted to data using a non-linear least squares analysis. I-V curves were fitted using double Boltzmann functions:
(§4) where x is the pre-pulse potential, V1/2 is the mid-point potential, and k is the corresponding slope factor for single Boltzmann functions. Double Boltzmann fits were used to describe the shape of the curve, not to imply the existence of separate channel populations. Numbers 1 and 2 simply indicate first and second mid-points; a along with g are fitting parameters.
(§5) Activation curves were obtained from the I-V curves by dividing the peak current at each depolarizing step by the driving force according to the equation: G=I/(Vmem-Erev), where I is the peak current, Vmem is the membrane potential and Erev is the reversal potential. The conductance (G) was normalized against the maximum conductance (Gmax). For total and the different subtypes of Ca^2+ currents, steady-state inactivation (SSI) curves were obtained by applying an H-infinity protocol that consisted of 1.5-seconds conditioning pre-pulses from −100 to +30 mV in 10-mV increments followed by a 20-millisecond test pulse to +10 mV. For Na^+ currents, SSI curves were obtained by applying an H-infinity protocol that consisted of 1-second conditioning pre-pulses from −120 to +10 mV in 10-mV increments followed by a 200-millisecond test pulse to +10 mV. Inactivation curves were obtained by dividing the peak current recorded at the test pulse by the maximum current (Imax). Activation and SSI curves were fitted with the Boltzmann equation.

[1] = target: T1, Cav2.1 (P/Q-type) calcium channels (Rattus norvegicus, UniProt P54282); assay: Whole-cell patch-clamp, isolated P/Q-type Ca2+ currents in DRG neurons; format: cell-based
T1 construct: Recordings were obtained from acutely dissociated DRG neurons; endogenous in cells; host or cells: acutely dissociated rat DRG neurons
Procedure: as §1, §2, §3, §4, §5

[2] = system: Cav3 (T-type) calcium channels; assay: Whole-cell patch-clamp, isolated T-type Ca2+ currents in DRG neurons; format: cell-based, rat
Procedure: as §1, §2, §3, §4, §5

Cav2.2 = target: T2, Cav2.2 (Rattus norvegicus, UniProt Q02294); assay: Immunocytochemistry / confocal microscopy of Cav2.2 membrane expression in DRG neurons; format: cell-based; conditions: 20 μM overnight (DMSO: 3.59±0.42)
T2 construct: Recordings were obtained from acutely dissociated DRG neurons; endogenous in cells; host or cells: primary rat DRG neurons
Procedure: Lumbar DRGs were dissected from 100 g female Sprague-Dawley rats using procedures as described previously (Gomez et al., 2022). DRGs were excised and placed in sterile DMEM (Cat #11965; Thermo Fisher Scientific, Waltham, MA). The ganglia were dissociated enzymatically with collagenase type I (5 mg/mL, Cat #LS004194; Worthington) and neutral protease (3.125 mg/mL, Cat #LS02104; Worthington, Lakewood, NJ) for 50 minutes at 37° C. under gentle agitation. The dissociated cells were then centrifuged (800 rpm for 5 min) and resuspended in DMEM containing 1% penicillin/streptomycin sulfate (Cat #15140, Life Technologies, Carlsbad, CA), 10% fetal bovine serum [HyClone]), and 30 ng/mL nerve growth factor (Cat #N2513, Millipore Sigma, St. Louis, MO). The cells were seeded on poly-D-lysine (Cat #P6407, Millipore Sigma, St. Louis, MO) and laminin (Cat #sc-29012, Santa Cruz Biotechnology, Dallas, TX) -coated 12- or 15-mm glass coverslips and incubated at 37° C. All cultures were used within 48 hours.
Immunocytochemistry was performed on DRG neurons incubated with vehicle (0.1% DMSO) or CBD3063 (20 μM) overnight. […] For all quantitative comparisons among cells under differing experimental conditions, camera gain and other relevant settings were kept constant. The freeware image analysis program Image J (http://rsb.info.nih.gov/ij/) was used for quantifying cellular fluorescence. […]

[3] = 20 μM overnight, mean ± SEM (n cells)

T1 sequence (P54282 whole entry): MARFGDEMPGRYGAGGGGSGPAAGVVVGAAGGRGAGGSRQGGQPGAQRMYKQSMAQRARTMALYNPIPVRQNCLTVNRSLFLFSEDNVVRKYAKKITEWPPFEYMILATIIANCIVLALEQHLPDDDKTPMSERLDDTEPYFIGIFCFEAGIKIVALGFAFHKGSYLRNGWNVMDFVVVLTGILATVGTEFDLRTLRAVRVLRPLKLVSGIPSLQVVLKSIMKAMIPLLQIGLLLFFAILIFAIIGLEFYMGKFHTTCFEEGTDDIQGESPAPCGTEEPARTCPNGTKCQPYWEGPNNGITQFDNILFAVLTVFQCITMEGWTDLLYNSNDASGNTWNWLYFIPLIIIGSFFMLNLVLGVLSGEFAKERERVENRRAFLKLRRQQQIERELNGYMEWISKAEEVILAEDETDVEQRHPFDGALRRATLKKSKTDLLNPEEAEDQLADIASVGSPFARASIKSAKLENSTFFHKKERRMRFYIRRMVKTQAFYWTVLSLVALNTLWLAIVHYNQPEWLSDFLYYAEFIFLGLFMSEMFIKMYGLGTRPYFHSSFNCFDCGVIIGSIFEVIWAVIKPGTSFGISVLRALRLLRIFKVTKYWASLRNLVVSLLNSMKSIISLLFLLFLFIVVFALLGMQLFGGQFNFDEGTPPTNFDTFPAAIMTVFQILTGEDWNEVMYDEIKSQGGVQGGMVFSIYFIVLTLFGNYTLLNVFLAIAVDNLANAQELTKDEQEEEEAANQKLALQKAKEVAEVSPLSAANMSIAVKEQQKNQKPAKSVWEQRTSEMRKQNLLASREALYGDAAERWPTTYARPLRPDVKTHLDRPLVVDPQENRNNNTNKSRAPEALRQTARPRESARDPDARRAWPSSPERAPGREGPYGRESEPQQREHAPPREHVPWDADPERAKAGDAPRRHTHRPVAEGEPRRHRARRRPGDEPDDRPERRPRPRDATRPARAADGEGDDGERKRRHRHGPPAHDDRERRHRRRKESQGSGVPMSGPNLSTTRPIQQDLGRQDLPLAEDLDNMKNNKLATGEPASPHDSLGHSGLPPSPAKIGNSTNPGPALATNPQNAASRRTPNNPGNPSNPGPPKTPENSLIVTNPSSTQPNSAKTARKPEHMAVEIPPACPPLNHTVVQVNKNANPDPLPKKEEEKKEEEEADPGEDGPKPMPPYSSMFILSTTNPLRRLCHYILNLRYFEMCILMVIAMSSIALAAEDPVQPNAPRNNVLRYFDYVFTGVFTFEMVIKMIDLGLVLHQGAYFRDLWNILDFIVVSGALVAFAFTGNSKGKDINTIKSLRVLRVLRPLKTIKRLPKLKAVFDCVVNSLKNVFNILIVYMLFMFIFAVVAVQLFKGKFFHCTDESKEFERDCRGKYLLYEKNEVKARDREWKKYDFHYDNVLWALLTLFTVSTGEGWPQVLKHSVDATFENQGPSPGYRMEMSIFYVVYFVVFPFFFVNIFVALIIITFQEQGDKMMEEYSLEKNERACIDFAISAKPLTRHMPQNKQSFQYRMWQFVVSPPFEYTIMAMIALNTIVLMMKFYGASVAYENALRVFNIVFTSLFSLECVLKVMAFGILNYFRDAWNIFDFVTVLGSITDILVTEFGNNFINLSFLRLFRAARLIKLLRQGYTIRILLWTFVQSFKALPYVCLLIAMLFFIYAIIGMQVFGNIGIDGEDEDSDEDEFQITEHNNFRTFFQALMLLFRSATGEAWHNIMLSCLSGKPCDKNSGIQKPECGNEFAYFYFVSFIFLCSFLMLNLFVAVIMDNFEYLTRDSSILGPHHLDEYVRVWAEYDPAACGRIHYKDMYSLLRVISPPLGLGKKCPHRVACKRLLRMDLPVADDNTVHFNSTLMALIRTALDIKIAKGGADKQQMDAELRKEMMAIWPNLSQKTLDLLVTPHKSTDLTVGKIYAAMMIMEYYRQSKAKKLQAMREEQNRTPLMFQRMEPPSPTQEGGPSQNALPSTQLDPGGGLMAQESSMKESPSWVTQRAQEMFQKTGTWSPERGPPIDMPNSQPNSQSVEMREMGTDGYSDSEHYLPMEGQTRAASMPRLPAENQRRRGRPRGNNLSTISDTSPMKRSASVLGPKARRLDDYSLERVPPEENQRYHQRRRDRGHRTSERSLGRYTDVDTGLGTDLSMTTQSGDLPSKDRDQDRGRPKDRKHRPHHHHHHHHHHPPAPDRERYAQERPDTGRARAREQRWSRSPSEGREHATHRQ
T1 sequence (P54290 25-1091 partner): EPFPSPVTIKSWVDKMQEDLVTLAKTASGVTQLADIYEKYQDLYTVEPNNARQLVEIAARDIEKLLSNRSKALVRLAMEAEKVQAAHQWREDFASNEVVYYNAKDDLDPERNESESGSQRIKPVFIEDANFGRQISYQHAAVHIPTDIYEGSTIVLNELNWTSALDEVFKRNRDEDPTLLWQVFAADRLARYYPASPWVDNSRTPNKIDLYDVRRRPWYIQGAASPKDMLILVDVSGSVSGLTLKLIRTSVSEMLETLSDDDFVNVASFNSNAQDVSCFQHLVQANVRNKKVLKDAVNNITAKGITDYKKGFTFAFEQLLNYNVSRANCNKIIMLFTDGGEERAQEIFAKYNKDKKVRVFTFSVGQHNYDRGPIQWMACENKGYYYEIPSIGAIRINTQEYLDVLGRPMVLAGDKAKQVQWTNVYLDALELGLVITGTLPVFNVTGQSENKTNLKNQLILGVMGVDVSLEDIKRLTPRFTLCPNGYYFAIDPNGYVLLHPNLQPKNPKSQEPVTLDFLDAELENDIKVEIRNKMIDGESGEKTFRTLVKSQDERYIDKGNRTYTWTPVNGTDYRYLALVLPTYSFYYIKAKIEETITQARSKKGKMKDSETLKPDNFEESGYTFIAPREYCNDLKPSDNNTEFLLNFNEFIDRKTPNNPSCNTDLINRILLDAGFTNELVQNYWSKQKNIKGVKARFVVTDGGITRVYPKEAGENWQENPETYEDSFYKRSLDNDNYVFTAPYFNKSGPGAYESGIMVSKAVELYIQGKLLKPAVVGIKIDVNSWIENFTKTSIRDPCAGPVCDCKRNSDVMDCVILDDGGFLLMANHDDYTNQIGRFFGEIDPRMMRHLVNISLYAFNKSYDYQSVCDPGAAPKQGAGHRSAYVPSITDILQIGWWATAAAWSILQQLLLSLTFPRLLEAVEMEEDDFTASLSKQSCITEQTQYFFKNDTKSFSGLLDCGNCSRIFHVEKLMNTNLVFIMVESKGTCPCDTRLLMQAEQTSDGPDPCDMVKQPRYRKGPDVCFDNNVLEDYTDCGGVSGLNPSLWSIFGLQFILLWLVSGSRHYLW
T1 sequence (P54287 whole entry partner): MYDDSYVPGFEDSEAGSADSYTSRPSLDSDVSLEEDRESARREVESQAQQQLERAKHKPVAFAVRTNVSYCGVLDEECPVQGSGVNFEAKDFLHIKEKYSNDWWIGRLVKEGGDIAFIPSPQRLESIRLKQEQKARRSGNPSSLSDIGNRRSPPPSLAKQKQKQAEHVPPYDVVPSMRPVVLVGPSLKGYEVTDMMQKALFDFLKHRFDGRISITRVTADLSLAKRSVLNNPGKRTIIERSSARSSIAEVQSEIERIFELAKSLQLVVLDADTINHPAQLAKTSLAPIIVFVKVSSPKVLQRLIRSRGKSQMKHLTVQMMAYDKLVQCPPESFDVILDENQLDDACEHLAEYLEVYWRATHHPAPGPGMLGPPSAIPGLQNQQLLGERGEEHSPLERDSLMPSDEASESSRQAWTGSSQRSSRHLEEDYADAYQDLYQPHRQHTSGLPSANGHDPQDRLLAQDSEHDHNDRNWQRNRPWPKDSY

- effect on Ca2+ influx through Cav2.1 (P/Q-type) channels (current density-voltage curve, peak current density) ([1]; 20 μM overnight vs 0.1% DMSO): does not alter
- P/Q-type Ca2+ currents, activation V1/2 [1, 3]: −3.265 ± 0.824 (7) mV
- P/Q-type Ca2+ currents, activation k (slope factor) [1, 3]: 4.186 ± 0.663 (7)
- P/Q-type Ca2+ currents, inactivation V1/2 [1, 3]: −18.667 ± 1.688 (7) mV
- P/Q-type Ca2+ currents, inactivation k (slope factor) [1, 3]: −9.396 ± 1.470 (7)
- Cav2.2 membrane/cytosol ratio (Cav2.2): 1.64±0.10
Structure (SMILES): CC(=O)N[C@@H]1CCCN(C(=O)NCCCNc2ccccn2)C1 [CBD3063, (3R)-3-acetamido-N-[3-(pyridin-2-ylamino)propyl]piperidine-1-carboxamide]
- peak total calcium current density (total Ca2+ currents; +10 mV (DMSO: −93.23±10.40)): −49.84±6.17 pA/pF
- reduction in Ca2+ currents at peak current density (total Ca2+ currents; +10 mV, vs 0.1% DMSO): ~46.54%
- Total Ca2+ currents, activation V1/2 (total Ca2+ currents; mean ± SEM (n cells)): 0.971 ± 2.338 (16) mV
- Total Ca2+ currents, activation k (slope factor) (total Ca2+ currents; mean ± SEM (n cells)): 11.004 ± 2.181 (16)
- Total Ca2+ currents, inactivation V1/2 (total Ca2+ currents; mean ± SEM (n cells)): −20.944 ± 3.182 (16) mV
- Total Ca2+ currents, inactivation k (slope factor) (total Ca2+ currents; mean ± SEM (n cells)): −14.132 ± 2.880 (16)
- normalized peak total ICa2+ density (total Ca2+ currents; normalized to 0.1% DMSO control (1.00±0.06)): 0.51±0.04 ratio to DMSO control
- effect on Ca2+ influx through Cav3 (T-type) channels (current density-voltage curve, peak current density) ([2]; 20 μM overnight vs 0.1% DMSO): does not alter
- T-type Ca2+ currents, activation V1/2 [2, 3]: −10.982 ± 1.992 (10) mV
- T-type Ca2+ currents, activation k (slope factor) [2, 3]: 9.924 ± 1.628 (10)
- T-type Ca2+ currents, inactivation V1/2 [2, 3]: −35.122 ± 2.752 (10) mV
- T-type Ca2+ currents, inactivation k (slope factor) [2, 3]: −12.929 ± 2.490 (10)
